Where two headings read alike, the source gives them in different places.
Tests used:
HepG2 cells = experiment: Direct cellular toxicity (total cellular ATP levels); format: cell-based; settings: Homo sapiens, concentration causing a 50% decrease in total cellular ATP levels, read-out: Cellular Toxicity (EC50, μM ± SD)
Text: Microsomal stability is expressed as % of unmodified compound remaining after reaction. Cellular toxicity is expressed as the con-centration causing a 50% decrease in total cellular ATP levels. Values represent means±S.E.M.

myoglobin (Mb) = biological target: T1, myoglobin (Mb) (Homo sapiens, UniProt P02144); experiment: Inhibition of myoglobin-induced arachidonic acid oxidation; format: biochemical
T1 sequence (P02144 1-154): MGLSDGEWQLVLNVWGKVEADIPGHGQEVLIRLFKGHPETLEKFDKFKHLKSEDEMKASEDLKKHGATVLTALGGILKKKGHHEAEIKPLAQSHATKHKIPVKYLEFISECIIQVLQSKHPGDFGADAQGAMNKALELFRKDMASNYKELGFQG
Experimental: (§1) The inhibition of the lipid peroxidation produced by myoglobin (Mb) and COX-1 by the different analogs was tested. Values represent the IC50 for each hemeprotein and are expressed as means±S.E.M. a: value reported from (1.). b: value reported from (3).

COX-1 [1] = biological target: T2, COX-1 (Homo sapiens, UniProt P23219); experiment: Inhibition of COX-1 oxidation of arachidonic acid (Example 6); format: biochemical
Experimental: as §1

Microsomal stability = settings: % of unmodified compound remaining after reaction
hemoglobin = hemoglobin (Homo sapiens, UniProt P68871+P69905); experiment: Inhibition of hemoglobin-catalyzed lipid peroxidation; format: biochemical; settings: read-out: IC50 for hemoglobin (hemoprotein-catalyzed lipid peroxidation)
[2] = tested on: rat model of rhabdomyolysis; experiment: Rat model of rhabdomyolysis (renal failure from myoglobin-catalyzed lipid peroxidation); format: in vivo; settings: dose that produced plasma levels in the therapeutic range for humans
PGHS-1 (COX-1) = PGHS-1 (COX-1) (Homo sapiens, UniProt P23219); experiment: Inhibition of PGHS-1 (COX-1), [14C]arachidonic acid oxidation; format: biochemical; settings: for IC50: in vitro system
Experimental: At this time the reaction was initiated by addition of 0.5 μM of [14C]arachidonic acid. After 8 seconds, the reaction was stopped by adding an ice cold mixture of diethyl ether/methanol/4.0 M citric acid. PGHS-1 activity was expressed as percent oxidation of arachidonic acid compared with control where no inhibitor was added. Each data point represents the mean±S.E.M of six values.
(§2) Hematin-reconstituted COX-1 (5.4 nM) or COX-2 (10.8 nM) in Tris HCl 100 mM, pH 8.0, 500 μM phenol, was pre-incubated with N-dimethyl pyrimidinol (DM, plain line) or N-dimethyl pyridinol (DR, dashed line) at varying concentrations at 37° C. for 20 minutes. At this time the reaction was initiated by addition of 0.5 μM of [14C] arachidonic acid. After 8 seconds, the reaction was stopped by adding an ice cold mixture of diethyl ether/methanol/4.0 M citric acid. PGHS-1 activity was expressed as percent oxidation of arachidonic acid compared with control where no inhibitor was added. Each data point represents the mean±S.E.M of six values.

COX-1 [3] = biological target: T2, COX-1; settings: oxidation of arachidonic acid, Table 2, footnote b; read-out: COX-1 IC50 (μM ± SEM), value reported from (3); cited from earlier work
ferryl myoglobin = biological target: T3, ferryl myoglobin (Homo sapiens, UniProt P02144); experiment: Reduction of ferryl myoglobin to ferric myoglobin; format: biochemical
T3 sequence (P02144 1-154): T1 sequence (P02144 1-154)
Experimental: Ferryl myoglobin was generated by incubating ferric myoglobin 10 μM in PBS with 10 μM hydrogen peroxide until there was no more change in the peak at 421 nm. At this time, the analogs were added to the cuvette at the final concentrations indicated and spectra were recorded every 15 sec for 2 min. The initial rate of reduction was calculated as the variation of absorbance at 409 nm in the first two minutes after adding the analogs. In this period of time the rates of reduction were linear for each concentration of analog.

PGHS-2 (COX-2) = biological target: T4, PGHS-2 (COX-2) (Homo sapiens, UniProt P35354); experiment: Inhibition of PGHS-2 (COX-2), [14C]arachidonic acid oxidation; format: biochemical; settings: for inhibition of PGHS-2 (COX-2), in words: compared with its PGHS-1 inhibition
T4 sequence (P35354 18-604): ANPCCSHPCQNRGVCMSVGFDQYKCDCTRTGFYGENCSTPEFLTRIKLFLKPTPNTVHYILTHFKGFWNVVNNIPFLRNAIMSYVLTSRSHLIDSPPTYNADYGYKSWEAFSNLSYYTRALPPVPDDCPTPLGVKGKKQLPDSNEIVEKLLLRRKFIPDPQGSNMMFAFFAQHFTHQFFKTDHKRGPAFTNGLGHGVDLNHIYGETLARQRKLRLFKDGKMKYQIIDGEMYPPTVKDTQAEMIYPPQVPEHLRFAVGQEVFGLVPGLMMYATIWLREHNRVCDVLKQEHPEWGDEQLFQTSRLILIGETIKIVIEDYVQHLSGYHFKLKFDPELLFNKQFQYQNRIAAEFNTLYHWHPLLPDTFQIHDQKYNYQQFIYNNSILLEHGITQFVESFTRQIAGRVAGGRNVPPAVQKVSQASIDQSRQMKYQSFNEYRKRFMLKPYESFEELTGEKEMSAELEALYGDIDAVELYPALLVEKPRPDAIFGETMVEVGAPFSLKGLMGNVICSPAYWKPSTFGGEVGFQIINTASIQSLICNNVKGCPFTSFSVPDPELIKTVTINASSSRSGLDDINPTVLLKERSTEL
Experimental: as §2

HepG2 liver cell line = tested on: HepG2 liver cell line
Experimental: HepG2 were plated in multiple 96-well plates at 2×10^4 cells per well and pretreated with ethanol 100 μM for 2 hours. […] Cell viability after 24 h was determined by measuring ATP levels by luminescence assay.

[4] = bicyclic compounds, structure table, read-out: Oxidation of AA by Mb IC50
[5] = oxidation of arachidonic acid, Table 2, read-out: Mb IC50 (μM ± SEM)
[6] = bicyclic compounds, structure table, read-out: Oxidation of AA by COX-1 IC50
[7] = oxidation of arachidonic acid, Table 2, read-out: COX-1 IC50 (μM ± SEM)

PGHS-1 (COX-1), sequence (P23219 24-599, species assumed): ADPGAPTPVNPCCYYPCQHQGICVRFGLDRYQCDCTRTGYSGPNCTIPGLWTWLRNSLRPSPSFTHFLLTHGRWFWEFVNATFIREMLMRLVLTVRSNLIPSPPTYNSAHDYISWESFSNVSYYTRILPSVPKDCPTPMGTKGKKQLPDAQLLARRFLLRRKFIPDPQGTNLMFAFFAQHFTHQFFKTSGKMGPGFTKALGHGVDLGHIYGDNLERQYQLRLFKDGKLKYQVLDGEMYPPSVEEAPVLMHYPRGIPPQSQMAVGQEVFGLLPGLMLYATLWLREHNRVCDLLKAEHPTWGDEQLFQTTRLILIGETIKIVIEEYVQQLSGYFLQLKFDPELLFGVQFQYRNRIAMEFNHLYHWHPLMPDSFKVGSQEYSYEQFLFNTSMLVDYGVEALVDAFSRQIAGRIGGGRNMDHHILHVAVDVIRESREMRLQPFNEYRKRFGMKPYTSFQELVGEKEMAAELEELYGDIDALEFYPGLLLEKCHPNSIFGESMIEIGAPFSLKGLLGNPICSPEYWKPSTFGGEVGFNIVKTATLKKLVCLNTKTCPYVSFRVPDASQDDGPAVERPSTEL
T2 sequence (P23219 24-599, species assumed): as above
hemoglobin, sequence (P69905 2-142 limits assumed): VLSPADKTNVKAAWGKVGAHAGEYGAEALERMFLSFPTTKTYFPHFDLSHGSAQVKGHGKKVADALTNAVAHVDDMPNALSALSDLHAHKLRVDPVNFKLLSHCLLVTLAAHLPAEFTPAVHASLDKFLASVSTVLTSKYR
hemoglobin, sequence (P68871 2-147 limits assumed): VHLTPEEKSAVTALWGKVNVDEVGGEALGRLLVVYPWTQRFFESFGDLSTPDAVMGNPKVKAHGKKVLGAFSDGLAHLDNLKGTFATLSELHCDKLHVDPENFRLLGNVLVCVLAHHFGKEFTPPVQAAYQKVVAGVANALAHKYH

| IC50 (myoglobin (Mb); [4]) [µM] | IC50 (myoglobin (Mb); [5]) [µM] | IC50 (COX-1 [1]; [6]) [µM] | IC50 (COX-1 [1]; [7]) [µM] | Microsomal stability % left (Microsomal stability) [%] | Compound | EC50 (HepG2 cells) [µM] | other results |
| --- | --- | --- | --- | --- | --- | --- | --- |
| 5.34 ± 0.1 | 5.3 ± 0.1 | 198 ± 50.1 | 198 ± 25 | 97 ± 3 | Cc1nc2c(c(C)c1O)COC(=O)N2 [Analog 14] | > 5000 | – |
| – | – | – | – | – | CC(=O)Nc1ccc(O)cc1 [ApAP, acetaminophen] | 594 ± 147 | IC50 (hemoglobin): 15 µM; lipid peroxidation in rhabdomyolysis model ([2]; listed as Acetaminophen): blocked; renal failure in rhabdomyolysis model ([2]; listed as Acetaminophen): prevented; lipid peroxidation in rhabdomyolysis model ([2]; listed as acetaminophen): blocks; renal failure in rhabdomyolysis model ([2]; listed as acetaminophen): blocks; IC50 (PGHS-1 (COX-1)): 250 µM; IC50 (COX-1 [3]): 372 µM |
| – | – | – | – | – | CN(C)c1ncc(O)cn1 [DM-Pym, 2-(dimethylamino)pyrimidin-5-ol] | – | potency in reducing ferryl myoglobin, in words (ferryl myoglobin; compared with acetaminophen): remarkably more potent than acetaminophen; IC50 (PGHS-1 (COX-1)): 21 µM; inhibition of PGHS-2 (COX-2), in words (PGHS-2 (COX-2)): equally effective; cytotoxicity in HepG2 cell line stimulated with ethanol (HepG2 liver cell line): does not cause cytotoxicity |
| – | – | – | – | – | CN(C)c1ccc(O)cn1 [DM-Pyr, 6-(dimethylamino)pyridin-3-ol] | – | inhibition of PGHS-2 (COX-2), in words (PGHS-2 (COX-2)): only a weak inhibitor |
| – | – | – | – | – | 2-(dimethylamino)pyrimidin-5-ol [DM-Pym] | – | times more potent in reducing ferryl myoglobin than acetaminophen (ferryl myoglobin; relative to acetaminophen): 14 times; times more potent as an inhibitor of PGHS-1 than acetaminophen (PGHS-1 (COX-1); relative to acetaminophen): 10 times; times more potent as an inhibitor of PGHS-2 than acetaminophen (PGHS-2 (COX-2); relative to acetaminophen): 10 times; cytotoxicity in HepG2 cell line stimulated with ethanol (HepG2 liver cell line): not cytotoxic |
| 2.29 ± 0.6 | 2.3 ± 0.4 | > 1000 | > 1000 | 87 ± 7 | Cc1nc2c(c(C)c1O)CNC(=O)N2 [Analog 13] | 2960 ± 284 | inhibition of COX-1, in words (COX-1 [1]; at concentrations up to 1 mM): not able to significantly inhibit |
| 1.15 ± 0.3 | 1.2 ± 0.1 | 451 | 451 ± 35 | 158 ± 33 | O=C1NCc2cc(O)cnc2N1 [Analog 12] | 4760 ± 36 | – |
